Reference: article PMC5895803, “Inhibition of cancer stem cell like cells by a synthetic retinoid” (Nature Communications, 2018)
In brackets after ≈: the same amount, converted by molar mass.

How the values were obtained:
[1] = parameters: method as in doi:10.1016/j.jaad.2003.11.002; conditions: cited from earlier work
B16-F1 TRCs [2] = assay: Colony growth of B16-F1 TRCs in 90-Pa 3D soft fibrin gels; format: cell-based, murine; conditions: for Rescue of TRC growth from inhibitory effects of WYC-209 by pretreatment: pretreated 3 h before 0.1 or 1 μM WYC-209, day 5; for inhibition at 10 µM: B16-F1, 10 μM; for Rescue of TRC growth from inhibitory effects of Tazarotene by pretreatment: pretreated 3 h before 0.1 or 1 μM Tazarotene
B16-F1 TRCs [3] = assay: Cell cycle analysis (BrdU flow cytometry), S phase of TRCs; format: cell-based, murine; conditions: 10 μM, 24 hours
Procedure: For Annexin-V and PI staining to quantify cell apoptosis, treated TRCs were isolated from 3D fibrin gel by using 5 mg mL^−1 Dispase II (Sigma), cells were labeled with FITC-conjugated Annexin-V and PI according to the manufacturer’s instruction (Biolegend). Data were acquired on a BD Cantoll (BD biosciences) and analyzed with FlowJo software. For BrdU staining to quantify cell proliferation, cells were labeled with FITC-conjugated anti-BrdU antibody according to the manufacturer’s instruction (FITC BrdU Flow Kit, BD Biosciences) and then data were acquired on an Accuri C6 (BD Biosciences) and analyzed with BD Accuri C6 software.
Supplementary Figure 13. WYC-209 blocks S phase of TRCs. Different cancer cell lines cultured in 3D soft fibrin gel on day 0, then treated with 0.1, 1, or 10 μM WYC-209, WYC-209A, WYC-209B on day 4, isolated cells after 24 hours and labeled with FITC-conjugated anti-BrdU antibody for cell cycle analysis, 10 μM ATRA and Tazarotne as positive controls. (a) Representative images of flow cytometry in different conditions. (b) Quantification of S phase ratio in different conditions. Mean ± s.e.m.; n=3 independent experiments; * P<0.05; ** P<0.01; *** P<0.001 (Student’s t-test).
(1 picture or pasted object on this page, not shown here)

mouse RARs = target: mouse RARs; parameters: method as in earlier work; conditions: ref 1 (supplement); read-out: published Kd values to mouse RARs; cited from earlier work
Water solubility = conditions: pH 7.4, aqueous buffer, kinetic from dmso stock
melanoma TRCs = system: melanoma TRCs; parameters: method as in PMID 25099074; conditions: high concentrations (1 and 100 μM); cited from earlier work
CYP 2C19 = target: T1, CYP 2C19 (Homo sapiens, UniProt P33261); assay: Cytochromes enzyme inhibition assay, human liver microsomes; format: in vitro ADME; conditions: substrate S-mephenytoin (35 µM)
T1 construct: from tissue; host or cells: human liver microsomes

[4] = system: human malignant melanoma A375; assay: Colony growth of A375 TRCs in 90-Pa fibrin gels; format: cell-based; conditions: pretreated 3 h before 0.1 or 1 μM WYC-209, day 7
Procedure: Salmon fibrinogen and thrombin were purchased from Reagent Proteins (CA, USA). 3D fibrin gels were prepared as described previously[5],[6]. In brief, fibrinogen was diluted into 2 mg mL^−1 with T7 buffer (pH 7.4, 50 mM Tris, 150 mM NaCl). Cells were detached from 2D rigid dishes and cell density was adjusted to 10^4 cells per mL. Fibrinogen and cell solution mixture were made by mixing the same volume of fibrinogen solution and cell solution, resulting in 1 mg mL^−1 fibrinogen and 5000 cells per mL in the mixture fibrin gels. A volume of 50 μL cell/fibrinogen mixture was seeded into each well of 96-well plate and mixed well with pre-added 1 μL thrombin (100 U mL^−1). The cell culture plate was then incubated in 37 °C cell culture incubator for 10 min. Finally, 200 μL of DMEM medium containing 10% FBS and antibiotics was added.

[5] = Mus musculus, treated on day 0, day 5

T1 sequence (P33261 whole entry): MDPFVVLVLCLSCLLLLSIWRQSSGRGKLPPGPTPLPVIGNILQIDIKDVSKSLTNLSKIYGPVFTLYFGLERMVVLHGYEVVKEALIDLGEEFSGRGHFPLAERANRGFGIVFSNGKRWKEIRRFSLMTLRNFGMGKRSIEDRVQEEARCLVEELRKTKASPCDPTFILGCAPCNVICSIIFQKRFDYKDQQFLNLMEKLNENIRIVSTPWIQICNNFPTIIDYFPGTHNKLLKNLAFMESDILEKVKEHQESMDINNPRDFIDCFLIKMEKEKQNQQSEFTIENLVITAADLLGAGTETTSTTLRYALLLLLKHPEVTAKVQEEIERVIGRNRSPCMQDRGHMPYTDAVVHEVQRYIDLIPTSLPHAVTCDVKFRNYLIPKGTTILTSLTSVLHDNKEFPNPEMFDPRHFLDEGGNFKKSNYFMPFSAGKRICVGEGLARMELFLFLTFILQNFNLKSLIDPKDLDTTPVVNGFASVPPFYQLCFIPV

Question: For `CC1(C)CC[S+]([O-])c2ccc(C#Cc3ccc(C(=O)O)cn3)cc21` (centres unmarked) [AGN 190844], which “Activity after oxidation of the sulfur atom on Tazarotene” value [1] is on record?
Answer: The value was “loses its activity”.

Question: Which “Rescue of TRC growth from inhibitory effects of WYC-209 by pretreatment” value (B16-F1 TRCs [2]) does the source give for `CCc1ccc(C2=CC(C)(C)Sc3ccc(C#Cc4ccc(C(=O)O)cc4)cc32)cc1` [AGN-194310, reference compound] here?
Answer: The value was “rescued the TRC growth”.

Question: With `CC1=C(/C=C/C(C)=C/C=C/C(C)=C/C(=O)O)C(C)(C)CCC1` [ATRA, all-trans retinoic acid, reference compound] as the compound, how does the “Decrease of S phase of TRCs” value (B16-F1 TRCs [3]) read?
Answer: The value was about 55%.

Question: What about the Kd (mouse RARs) of the same compound?
Answer: The Kd was 0.0002 to 0.00036 µM.

Question: And the inhibition at 10 µM (B16-F1 TRCs [2]; [5])?
Answer: The inhibition at 10 µM was 80%.

Question: Which “Impact of antagonist alone on TRC growth” value (B16-F1 TRCs [2]) does the source give for `CC1(C)CC=C(c2cnc3ccccc3c2)c2cc(C(=O)Nc3ccc(C(=O)O)cc3)ccc21` [BMS195614, reference compound] here?
Answer: The value was “no impact on TRC growth”.

Question: What about the “Rescue of TRC growth from inhibitory effects of Tazarotene by pretreatment” value (B16-F1 TRCs [2]) of the same compound?
Answer: The value was “rescuing effect was minimal”.

Question: What about the “Rescue of TRC growth from inhibitory effects of WYC-209 by pretreatment” value (B16-F1 TRCs [2]) of the same compound?
Answer: Its value is “rescued the TRC growth”.

Question: Which results are given for `COCCOCOc1cc2ccc(-c3ccc(C(=O)O)cc3)cc2cc1C12CC3CC(CC(C3)C1)C2` [CD2665, reference compound]?
Answer: Impact of antagonist alone on TRC growth (B16-F1 TRCs [2]): no impact on TRC growth; Rescue of TRC growth from inhibitory effects of Tazarotene by pretreatment (B16-F1 TRCs [2]): rescuing effect was minimal; Rescue of TRC growth from inhibitory effects of WYC-209 by pretreatment (B16-F1 TRCs [2]): rescued the TRC growth

Question: With `CC(=O)N1CCN(c2ccc(OCC3COC(Cn4ccnc4)(c4ccc(Cl)cc4Cl)O3)cc2)CC1` (centres unmarked) [Ketoconazole, reference compound] as the compound, how does the solubility at 1 h (Water solubility; PBS (pH 7.4)) read?
Answer: The solubility at 1 h was 49.3 µM (≈ 26.2 µg/mL).

Question: Which solubility at 1 h (Water solubility) does the source give for `CC(C)NCC(O)COc1cccc2ccccc12` (centres unmarked) [Propranolol, reference compound] here?
Answer: The solubility at 1 h was over 100 µM.

Question: For `CCOC(=O)c1ccc(C#Cc2ccc3c(c2)C(C)(C)CCS3)nc1` [Tazarotene, reference compound], which “Decrease of S phase of TRCs” value (B16-F1 TRCs [3]) is on record?
Answer: Its value is ~ 45%.

Question: And the “Growth inhibition at 10 μM” value (B16-F1 TRCs [2]; 10 μM, treated on day 0, day 5, 10 µM)?
Answer: Its value is 71%.

Question: What about the inhibition at 10 µM (B16-F1 TRCs [2]; [5]) of the same compound?
Answer: Its inhibition at 10 µM is 71.2%.

Question: And the IC50 (B16-F1 TRCs [2]; Mus musculus, B16-F1 in 90-Pa fibrin gels, treated on day 0, colony size on day 5)?
Answer: The IC50 was 1.72 µM.

Question: With `N.N.[Cl][Pt][Cl]` [cisplatin] as the compound, how does the TRCs not killed (melanoma TRCs) read?
Answer: The TRCs not killed was 20–30%.

Question: With `COc1cccc2c1C(=O)c1c(O)c3c(c(O)c1C2=O)C[C@@](O)(C(=O)CO)C[C@@H]3O[C@H]1C[C@H](N)[C@H](O)[C@H](C)O1` [doxorubicin] as the compound, how does the TRCs not killed (melanoma TRCs) read?
Answer: Its TRCs not killed is 20–30%.

Question: For `COc1ccc2[nH]c([S+]([O-])Cc3ncc(C)c(OC)c3C)nc2c1` (centres unmarked) [omeprazole, reference compound], which IC50 (CYP 2C19) is on record?
Answer: Its IC50 is 4.99 µM.

Question: With `COC(=O)CC[C@H](NC(=O)[C@H](CC(=O)OC)NC(=O)OCc1ccccc1)C(=O)N[C@H](C(=O)N[C@@H](CC(=O)OC)C(=O)CF)C(C)C` [z-DEVD-FMK, reference compound] as the compound, how does the “Rescue of A375 TRC growth from WYC-209 inhibition by pretreatment” value [4] read?
Answer: The value was “substantially rescued growth”.

Question: What about the “Rescue of TRC growth from inhibitory effects of Tazarotene by pretreatment” value (B16-F1 TRCs [2]) of the same compound?
Answer: Its value is “could not rescue growth”.

Question: What about the “Rescue of TRC growth from inhibitory effects of WYC-209 by pretreatment” value (B16-F1 TRCs [2]) of the same compound?
Answer: Its value is “substantially rescued growth”.
